The values that follow come from US11845724B2, “USP30 inhibitors and uses thereof” (Vincere Biosciences, Inc., priority 2019, dated 2023).

Molecules are shown by their SMILES. Like-named read-outs stand apart in the source and are kept apart here. Where only a bound is given, the exact number is not on record here.

By IC50 is commonly meant the concentration that gives 50% inhibition.

One assay has as its target USP30 (Homo sapiens (Human), UniProt Q70CQ3). The experiment in a line: Dundee MALDI-TOF mass spectrometry assay (IC50). The format is biochemical. The note with it: USP30 25 ng/μl, K48-linked diubiquitin 5.6 μM, avg, read-out: Dundee IC50 μM (avg in vitro MS assay). In outline: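 USP30 (25 ng/μl) preincubated with compound 5 min at RT in Tris/BSA/DTT buffer, then K48-linked diubiquitin (5.6 μM) added for 45 min at RT. Stopped with 2% TFA; cleavage quantified by MALDI-TOF mass spectrometry to give IC50.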

In assay [1] the target is recombinant USP30 (amino acids 57-517 of the human sequence) (Homo sapiens (Human), UniProt Q70CQ3). The experiment in a line: In vitro USP30 biochemical assay (Ubiquitin-Rhodamine).
Sequence of recombinant USP30 (amino acids 57-517 of the human sequence) (Q70CQ3 57-517): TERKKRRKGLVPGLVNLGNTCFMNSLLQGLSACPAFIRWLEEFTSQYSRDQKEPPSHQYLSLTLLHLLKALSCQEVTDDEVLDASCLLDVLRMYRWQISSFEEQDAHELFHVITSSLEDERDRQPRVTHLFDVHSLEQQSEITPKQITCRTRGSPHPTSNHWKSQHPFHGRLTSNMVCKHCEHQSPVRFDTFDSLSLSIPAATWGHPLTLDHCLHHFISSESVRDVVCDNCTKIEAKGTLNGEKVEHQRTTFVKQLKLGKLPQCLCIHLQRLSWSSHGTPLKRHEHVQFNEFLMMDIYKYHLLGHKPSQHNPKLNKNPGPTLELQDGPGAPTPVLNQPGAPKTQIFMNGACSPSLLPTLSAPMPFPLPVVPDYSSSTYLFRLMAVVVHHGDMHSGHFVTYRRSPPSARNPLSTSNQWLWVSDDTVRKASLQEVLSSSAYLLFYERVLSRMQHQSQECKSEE
Description: In vitro biochemical assay to establish the potency of compounds for USP30 inhibition: a 384-well plate assay using a fluorophore tagged substrate of USP30 was used for in vitro screening of compounds. Each compound was tested at 10 different concentrations (0.5 to 10,000 nM) in duplicate wells. Compounds were pre-incubated at 25° C. for 30 min in an assay buffer consisting of 20 mM Tris/HCl, pH8.0, 1 mM GSH, 0.01% Triton X-100, 0.03% BGG and 1.5 nM recombinant USP30 (amino acids 57-517 of the human sequence with a C-terminal 6-His tag). Following the pre-incubation, Ubiquitin-Rhodamine substrate dissolved in the assay buffer was added at the final concentration of 25 nM to each well and plates were incubated at 25° C. for an additional 75 minutes. The reaction was stopped by adding 10 mM citric acid and fluorescence was read using excitation wavelength 485 nm, emission of 535 nm. Data were analyzed using Graph Pad Prism software with a four-parameter (floating slope) fit to log concentration data to determine IC50s.
Setting [2] is: USP30 IC50 μM (avg), Ubiquitin-Rhodamine substrate 25 nM, 1.5 nM recombinant USP30.
Where [3] appears, read: read-out: USP30 IC50 μM (avg), Ubiquitin-Rhodamine substrate 25 nM, 1.5 nM recombinant USP30.

Sequence of USP30 (Q70CQ3 whole entry): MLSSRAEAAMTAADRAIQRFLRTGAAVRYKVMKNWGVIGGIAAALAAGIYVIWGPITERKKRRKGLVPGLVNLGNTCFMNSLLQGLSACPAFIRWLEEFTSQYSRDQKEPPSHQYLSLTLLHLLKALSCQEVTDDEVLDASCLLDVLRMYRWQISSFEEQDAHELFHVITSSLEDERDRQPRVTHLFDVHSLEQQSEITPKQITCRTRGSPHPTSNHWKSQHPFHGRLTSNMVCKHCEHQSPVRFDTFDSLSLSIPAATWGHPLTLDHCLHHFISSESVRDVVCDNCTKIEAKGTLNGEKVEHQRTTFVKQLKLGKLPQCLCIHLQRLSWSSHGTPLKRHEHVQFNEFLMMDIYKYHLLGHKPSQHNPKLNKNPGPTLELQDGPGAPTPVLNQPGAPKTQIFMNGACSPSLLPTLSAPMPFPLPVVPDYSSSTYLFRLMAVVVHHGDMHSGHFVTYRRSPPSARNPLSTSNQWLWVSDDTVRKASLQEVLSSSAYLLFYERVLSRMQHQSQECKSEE

Consider `CC(C)(C)NS(=O)(=O)N1CCCc2c(NC(=O)[C@H](Cc3ccccc3)NC(=O)C3CCCCC3)cccc21` [Compound I-129, (S)-N-(1-(1-(N-tert-butylsulfamoyl)-1,2,3,4-tetrahydroquinolin-5-ylamino)-1-oxo-3-phenylpropan-2-yl)cyclohexanecarboxamide], for which the half-inhibitory concentration (IC50) (on USP30; in assay [1] (setting [2])) was 1 to 10 µM throughout.

In the case of `O=C(N[C@@H](Cc1ccccc1)C(=O)Nc1cccc2c(S(=O)(=O)NC3COC3)cccc12)c1ccc(F)cc1` [Compound I-131, (S)-4-fluoro-N-(1-(5-(N-oxetan-3-ylsulfamoyl)naphthalen-1-ylamino)-1-oxo-3-phenylpropan-2-yl)benzamide], the IC50 (on USP30; in assay [1] (setting [2])) was 0.05 to 1 µM each time.

Turning to `COCCNS(=O)(=O)c1ccc(NC(=O)[C@H](Cc2ccccc2)NC(=O)c2ccc(F)cc2)cc1` [Compound I-132, (S)-4-fluoro-N-(1-(4-(N-(2-methoxyethyl)sulfamoyl)phenylamino)-1-oxo-3-phenylpropan-2-yl)benzamide], the IC50 at USP30 was less than 0.05 µM; in assay [1] (setting [2]) it was 0.05 to 1 µM.

In the case of `CN(C)CCNS(=O)(=O)c1ccc(NC(=O)[C@H](Cc2ccccc2)NC(=O)c2ccc(F)cc2)cc1` [Compound I-133, (S)-N-(1-(4-(N-(2-(dimethylamino)ethyl)sulfamoyl)phenylamino)-1-oxo-3-phenylpropan-2-yl)-4-fluorobenzamide], the IC50 on USP30 is 1 to 10 µM; in assay [1] (setting [2]) it was 0.05 to 1 µM.

`COCC(C)(C)NS(=O)(=O)c1ccc(NC(=O)[C@H](Cc2ccccc2)NC(=O)c2ccc(F)cc2)cc1` [Compound I-134, (S)-4-fluoro-N-(1-(4-(N-(1-methoxy-2-methylpropan-2-yl)sulfamoyl)phenylamino)-1-oxo-3-phenylpropan-2-yl)benzamide]: the IC50 (on USP30; in assay [1] (setting [3])) was less than 0.05 µM each time.

Regarding `CC(C)(C)OCCNS(=O)(=O)c1ccc(NC(=O)[C@H](Cc2ccccc2)NC(=O)c2ccc(F)cc2)cc1` [Compound I-135, (S)-N-(1-(4-(N-(2-tert-butoxyethyl)sulfamoyl)phenylamino)-1-oxo-3-phenylpropan-2-yl)-4-fluorobenzamide], the figures for the IC50 (on USP30; in assay [1] (setting [2])) were 0.05 to 1 µM and 1 to 10 µM, respectively.

Regarding `CC1(NS(=O)(=O)c2ccc(NC(=O)[C@H](Cc3ccccc3)NC(=O)c3ccc(F)cc3)cc2)COC1` [Compound I-136, (S)-4-fluoro-N-(1-(4-(N-(3-methyloxetan-3-yl)sulfamoyl)phenylamino)-1-oxo-3-phenylpropan-2-yl)benzamide], the half-inhibitory concentration (IC50) (on USP30; in assay [1] (setting [3])) was less than 0.05 µM each time.

Take `O=C(N[C@@H](Cc1ccccc1)C(=O)Nc1ccc(S(=O)(=O)NCCO)cc1)c1ccc(F)cc1` [Compound I-138, (S)-4-fluoro-N-(1-(4-(N-(2-hydroxyethyl)sulfamoyl)phenylamino)-1-oxo-3-phenylpropan-2-yl)benzamide]: the IC50 at USP30 was less than 0.05 µM; in assay [1] (setting [2]), 0.05 to 1 µM.

For the molecule `CCNS(=O)(=O)c1ccc(NC(=O)[C@H](Cc2ccccn2)NC(=O)c2ccc(F)cc2)cc1` [Compound I-139, (S)-N-(1-(4-(N-ethylsulfamoyl)phenylamino)-1-oxo-3-(pyridin-2-yl)propan-2-yl)-4-fluorobenzamide], the IC50 (on USP30; in assay [1] (setting [2])) was 0.05 to 1 µM each time.

In the case of `O=C(N[C@@H](Cc1ccccn1)C(=O)Nc1ccc(S(=O)(=O)NC2COC2)cc1)c1ccc(F)cc1` [Compound I-140, (S)-4-fluoro-N-(1-(4-(N-oxetan-3-ylsulfamoyl)phenylamino)-1-oxo-3-(pyridin-2-yl)propan-2-yl)benzamide], the IC50 (on USP30; in assay [1] (setting [2])) was 0.05 to 1 µM throughout.

`O=C(N[C@@H](Cc1ccccn1)C(=O)Nc1ccc(S(=O)(=O)NC23CC(C2)C3)cc1)c1ccc(F)cc1` [Compound I-141, (S)-N-(1-(4-(N-bicyclo[1.1.1]pentan-1-ylsulfamoyl)phenylamino)-1-oxo-3-(pyridin-2-yl)propan-2-yl)-4-fluorobenzamide]: the IC50 (on USP30; in assay [1] (setting [2])) was 0.05 to 1 µM throughout.

For `O=C(N[C@@H](Cc1ccccn1)C(=O)Nc1ccc(S(=O)(=O)NC2CCC2)cc1)c1ccc(F)cc1` [Compound I-142, (S)-N-(1-(4-(N-cyclobutylsulfamoyl)phenylamino)-1-oxo-3-(pyridin-2-yl)propan-2-yl)-4-fluorobenzamide], the values for the IC50 (on USP30; in assay [1] (setting [2])) were less than 0.05 µM and 0.05 to 1 µM, respectively.

For `COc1cc(S(=O)(=O)NC2COC2)ccc1NC(=O)[C@H](Cc1ccccc1)NC(=O)c1ccc(F)cc1` [Compound I-144, (S)-4-fluoro-N-(1-(2-methoxy-4-(N-oxetan-3-ylsulfamoyl)phenylamino)-1-oxo-3-phenylpropan-2-yl)benzamide], the 50% inhibitory concentration (IC50) (at USP30; in assay [1] (setting [2])) was 0.05 to 1 µM each time.

As to `CCNS(=O)(=O)c1ccc(NC(=O)[C@H](Cc2ccccc2)NC(=O)c2ccc(F)cc2)cc1OC` [Compound I-146, (S)-N-(1-(4-(N-ethylsulfamoyl)-3-methoxyphenylamino)-1-oxo-3-phenylpropan-2-yl)-4-fluorobenzamide], the IC50 (on USP30; in assay [1] (setting [2])) was 0.05 to 1 µM throughout.

For the molecule `COc1cc(NC(=O)[C@H](Cc2ccccc2)NC(=O)c2ccc(F)cc2)ccc1S(=O)(=O)NC1COC1` [Compound I-147, (S)-4-fluoro-N-(1-(3-methoxy-4-(N-oxetan-3-ylsulfamoyl)phenylamino)-1-oxo-3-phenylpropan-2-yl)benzamide], the values for the IC50 (on USP30; in assay [1] (setting [2])) were less than 0.05 µM and 0.05 to 1 µM, respectively.

Take `COc1cc(NC(=O)[C@H](Cc2ccccc2)NC(=O)c2ccc(F)cc2)ccc1S(=O)(=O)NC12CC(C1)C2` [Compound I-148, (S)-N-(1-(4-(N-bicyclo[1.1.1]pentan-1-ylsulfamoyl)-3-methoxyphenylamino)-1-oxo-3-phenylpropan-2-yl)-4-fluorobenzamide]: the IC50 is less than 0.05 µM at USP30 and 0.05 to 1 µM in assay [1] (setting [2]).

Turning to `COCC(C)(C)NS(=O)(=O)c1ccc(NC(=O)[C@H](Cc2ccccc2)NC(=O)c2ccc(F)cc2)cc1OC` [Compound I-149, (S)-4-fluoro-N-(1-(3-methoxy-4-(N-(1-methoxy-2-methylpropan-2-yl)sulfamoyl)phenylamino)-1-oxo-3-phenylpropan-2-yl)benzamide], the IC50 at USP30 was less than 0.05 µM; in assay [1] (setting [2]), 0.05 to 1 µM.

Consider `COc1cc(NC(=O)[C@H](Cc2ccccc2)NC(=O)c2ccc(F)cc2)ccc1S(=O)(=O)NC1CCOCC1` [Compound I-150, (S)-4-fluoro-N-(1-(3-methoxy-4-(N-(tetrahydro-2H-pyran-4-yl)sulfamoyl)phenylamino)-1-oxo-3-phenylpropan-2-yl)benzamide], for which the IC50 is less than 0.05 µM at USP30 and 0.05 to 1 µM in assay [1] (setting [2]).

As for `COCCNS(=O)(=O)c1ccc(NC(=O)[C@H](Cc2ccccc2)NC(=O)c2ccc(F)cc2)cc1OC` [Compound I-151, (S)-4-fluoro-N-(1-(3-methoxy-4-(N-(2-methoxyethyl)sulfamoyl)phenylamino)-1-oxo-3-phenylpropan-2-yl)benzamide], the half-inhibitory concentration (IC50) on USP30 was less than 0.05 µM; in assay [1] (setting [2]), 0.05 to 1 µM.

Regarding `COc1cc(NC(=O)[C@H](Cc2ccccc2)NC(=O)c2ccc(F)cc2)ccc1S(=O)(=O)NCCO` [Compound I-152, (S)-4-fluoro-N-(1-(4-(N-(2-hydroxyethyl)sulfamoyl)-3-methoxyphenylamino)-1-oxo-3-phenylpropan-2-yl)benzamide], the IC50 at USP30 was less than 0.05 µM; in assay [1] (setting [2]) it was 0.05 to 1 µM.

In the case of `CCNS(=O)(=O)c1ccc(NC(=O)[C@H](Cc2ccccc2)NC(=O)c2ccc(F)cc2)cc1F` [Compound I-155, (S)-N-(1-(4-(N-ethylsulfamoyl)-3-fluorophenylamino)-1-oxo-3-phenylpropan-2-yl)-4-fluorobenzamide], the figures for the IC50 (at USP30; in assay [1] (setting [2])) were less than 0.05 µM and 0.05 to 1 µM, respectively.

With `CC(C)(C)NS(=O)(=O)c1ccc(NC(=O)[C@H](Cc2ccccc2)NC(=O)c2ccc(F)cc2)cc1F` [Compound I-156, (S)-N-(1-(4-(N-tert-butylsulfamoyl)-3-fluorophenylamino)-1-oxo-3-phenylpropan-2-yl)-4-fluorobenzamide], the IC50 (at USP30; in assay [1] (setting [3])) was less than 0.05 µM in each case.

Turning to `CCNS(=O)(=O)c1ccc(NC(=O)[C@H](Cc2ccccc2)NC(=O)c2ccc(F)cc2)c(F)c1` [Compound I-157, (S)-N-(1-(4-(N-ethylsulfamoyl)-2-fluorophenylamino)-1-oxo-3-phenylpropan-2-yl)-4-fluorobenzamide], the IC50 (at USP30; in assay [1] (setting [2])) was 0.05 to 1 µM throughout.

For `CC(C)(C)NS(=O)(=O)c1ccc(NC(=O)[C@H](Cc2ccccc2)NC(=O)c2ccc(F)cc2)c(F)c1` [Compound I-158, (S)-N-(1-(4-(N-tert-butylsulfamoyl)-2-fluorophenylamino)-1-oxo-3-phenylpropan-2-yl)-4-fluorobenzamide], the IC50 (at USP30; in assay [1] (setting [3])) was less than 0.05 µM each time.

Regarding `CC(C)(CN1CCOCC1)NS(=O)(=O)c1ccc(NC(=O)[C@H](Cc2ccccc2)NC(=O)c2ccc(F)cc2)cc1` [Compound I-162, (S)-4-fluoro-N-(1-(4-(N-(2-methyl-1-morpholinopropan-2-yl)sulfamoyl)phenylamino)-1-oxo-3-phenylpropan-2-yl)benzamide], the IC50 (on USP30; in assay [1] (setting [3])) was less than 0.05 µM each time.
